Test [1] concerns the target T1, human orexin-1 receptor (hOX1R) (Homo sapiens, UniProt O43613).
T1 construct: expressed in transfected cells; host or cells: Chinese hamster ovary (CHO) cells
T1 sequence (O43613 1-425): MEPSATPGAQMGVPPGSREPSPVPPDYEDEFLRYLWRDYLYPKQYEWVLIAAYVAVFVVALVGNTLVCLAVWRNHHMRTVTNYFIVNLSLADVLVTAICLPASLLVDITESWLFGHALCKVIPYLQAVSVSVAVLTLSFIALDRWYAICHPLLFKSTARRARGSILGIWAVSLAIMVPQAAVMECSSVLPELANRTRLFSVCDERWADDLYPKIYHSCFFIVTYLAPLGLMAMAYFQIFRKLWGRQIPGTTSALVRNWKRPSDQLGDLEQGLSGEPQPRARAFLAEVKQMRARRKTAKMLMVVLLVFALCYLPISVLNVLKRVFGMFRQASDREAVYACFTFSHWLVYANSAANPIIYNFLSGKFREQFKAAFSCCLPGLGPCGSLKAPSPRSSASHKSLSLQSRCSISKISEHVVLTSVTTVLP
In words: Orexin antagonistic activity assay (intracellular Ca2+, FDSS) in CHO cells expressing hOX1R. Conditions: CHO cells expressing hOX1R; ligand peptide 300 pM; Fluo-3 maximum fluorescence intensity; read-out: IC50 value OX1. Type of test: cell-based. As to the method:
(§1) The antagonistic activity of each test compound against human orexin-1 receptor (hOX1R) and orexin-2 receptor (hOX2R) was assayed by a modification of a method described in the literature (Toshikatsu Okumura et al., Biochemical and Biophysical Research Communications 280, 976-981, 2001). Chinese hamster ovary (CHO) cells forced to express hOX1R or hOX2R were inoculated at a density of 20,000 cells/well to a 96-well Black clear bottom plate (Nunc) and cultured at 37° C. for 16 hours under 5% CO2 conditions in a Ham's F-12 medium containing 0.1 mM MEM nonessential amino acids, 0.5 mg/ml G418, and 10% fetal bovine serum (all from Invitrogen Corp.). After removal of the medium, 100 μL of a buffer solution for assay (25 mM HEPES (Dojindo Laboratories), Hanks' balanced salt solution (Invitrogen Corp.), 0.1% bovine serum albumin, 2.5 mM probenecid, and 200 μg/ml Amaranth (all from Sigma-Aldrich Corp.), pH 7.4) containing 0.5 μM Fluo-3 AM ester (Dojindo Laboratories) was added to the cells, which were then incubated at 37° C. for 60 minutes under 5% CO2 conditions. After removal of the buffer solution for assay containing Fluo-3 AM ester, each test compound was dissolved at a concentration of 10 mM in dimethyl sulfoxide and diluted with a buffer solution for assay. Then, 150 μL of the solution was added to the cells, which were then incubated for 30 minutes.
(§2) A ligand peptide (Pyr-[…]NH2; Peptide Institute, Inc.) derived from human orexin-A by the substitution of two amino acids was diluted with a buffer solution for assay to final concentrations of 300 pM for hOX1R and 3 nM for hOX2R. Reaction was initiated by the addition of 50 μL of this ligand solution. The fluorescence intensity of the reaction was measured in each well every second for 3 minutes using Functional Drug Screening System (FDSS; manufactured by Hamamatsu Photonics K.K.), and the maximum fluorescence intensity was used as an index for intracellular Ca^2+ concentration to determine antagonistic activity. The antagonistic activity of the test compound was calculated with fluorescence intensity from a well supplemented with only a diluting buffer solution as 100% and fluorescence intensity from a well supplemented with a buffer solution free from the ligand and the compound as 0%. The 50% inhibitory concentration (IC50 value) was determined on the basis of fluorescence intensity derived from the test compound added at varying concentrations.

For test [2], the target named is T2, orexin-2 receptor (hOX2R) (Homo sapiens, UniProt O43614).
T2 construct: expressed in transfected cells; host or cells: Chinese hamster ovary (CHO) cells
T2 sequence (O43614 1-444): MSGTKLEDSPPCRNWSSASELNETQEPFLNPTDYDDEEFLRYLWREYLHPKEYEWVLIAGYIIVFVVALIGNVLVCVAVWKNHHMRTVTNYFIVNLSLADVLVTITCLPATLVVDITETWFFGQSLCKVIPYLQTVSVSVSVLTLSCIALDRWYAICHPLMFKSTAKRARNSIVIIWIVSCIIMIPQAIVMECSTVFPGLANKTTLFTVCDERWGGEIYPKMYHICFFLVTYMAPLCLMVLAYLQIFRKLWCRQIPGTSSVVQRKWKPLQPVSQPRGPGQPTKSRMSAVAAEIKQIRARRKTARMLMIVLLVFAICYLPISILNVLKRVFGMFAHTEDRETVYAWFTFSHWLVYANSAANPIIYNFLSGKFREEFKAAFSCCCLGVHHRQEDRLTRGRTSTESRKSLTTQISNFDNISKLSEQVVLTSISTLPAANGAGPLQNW
In words: Orexin antagonistic activity assay (intracellular Ca2+, FDSS) in CHO cells expressing hOX2R. Type of test: cell-based. The note with it: CHO cells expressing hOX2R; ligand peptide 3 nM; Fluo-3 maximum fluorescence intensity; read-out: IC50 value OX2. As to the method: as §1, §2

SMILES strings stand for the structures.

Usually IC50 stands for the concentration at which inhibition is half-maximal.

As for `C[C@@H]1CC[C@@H](c2nc3c(Cl)cccc3o2)CN1C(=O)c1cc(F)ccc1-c1ncccn1` [Example 70, [(2R,5R)-5-(4-Chloro-1,3-benzoxazol-2-yl)-2-methylpiperidin-1-yl][5-fluoro-2-(pyrimidin-2-yl)phenyl]methanone], the concentration for half-maximal inhibition (IC50) in test [1] turned out to be 0.0123 µM; in test [2], 0.0162 µM.

Take `Cc1ccc(-n2nccn2)c(C(=O)N2C[C@H](c3nc4ccc(F)cc4o3)CC[C@H]2C)n1` (single isomer, unassigned) [Example 12, [(2R*,5R*)-5-(6-Fluoro-1,3-benzoxazol-2-yl)-2-methylpiperidin-1-yl][6-methyl-3-(2H-1,2,3-triazol-2-yl)pyridin-2-yl]methanone]: the IC50 in test [1] was found to be 0.111 µM; in test [2] it was 0.105 µM.

On to `Cc1ccc(-n2nccn2)c(C(=O)N2C[C@H](c3nc4cccc(F)c4o3)CC[C@H]2C)c1` [Example 65, [(2R,5R)-5-(7-Fluoro-1,3-benzoxazol-2-yl)-2-methylpiperidin-1-yl][5-methyl-2-(2H-1,2,3-triazol-2-yl)phenyl]methanone], for which the figures for the IC50 in test [1] and in test [2] were 0.0086 µM and 0.0066 µM, respectively.

Turning to `C[C@@H]1CC[C@@H](c2nc3cc(F)ccc3o2)CN1C(=O)c1cc(Cl)ccc1-c1ncccn1` [Example 33, [5-Chloro-2-(pyrimidin-2-yl)phenyl][(2R,5R)-5-(5-fluoro-1,3-benzoxazol-2-yl)-2-methylpiperidin-1-yl]methanone], the 50% inhibitory concentration (IC50) in test [1] was 0.0446 µM; in test [2], 0.0092 µM.

Consider `Cc1ccc(-n2nccn2)c(C(=O)N2C[C@H](c3nc4cc(F)cc(F)c4o3)CC[C@H]2C)c1` [Example 62, [(2R,5R)-5-(5,7-Difluoro-1,3-benzoxazol-2-yl)-2-methylpiperidin-1-yl][5-methyl-2-(2H-1,2,3-triazol-2-yl)phenyl]methanone], for which the IC50 in test [1] came out at 0.0248 µM; in test [2] it was 0.0043 µM.

As for `Cc1ccc(-n2nccn2)c(C(=O)N2C[C@H](c3nc4ccc(Cl)cc4o3)CC[C@H]2C)n1` [Example 46, [(2R,5R)-5-(6-Chloro-1,3-benzoxazol-2-yl)-2-methylpiperidin-1-yl][6-methyl-3-(2H-1,2,3-triazol-2-yl)pyridin-2-yl]methanone], the IC50 in test [1] was found to be 0.01 µM; in test [2], 0.07 µM.

Turning to `Cc1ccc(-c2ncccn2)c(C(=O)N2C[C@H](c3nc4c(Cl)cccc4o3)CC[C@H]2C)c1` [Example 69, [(2R,5R)-5-(4-Chloro-1,3-benzoxazol-2-yl)-2-methylpiperidin-1-yl][5-methyl-2-(pyrimidin-2-yl)phenyl]methanone], the figures for the half-inhibitory concentration (IC50) in test [1] and in test [2] were 0.0044 µM and 0.0055 µM, respectively.

For `C[C@@H]1CC[C@@H](c2nc3cc(F)ccc3o2)CN1C(=O)c1cc(F)ccc1-n1nccn1` [Example 29, [(2R,5R)-5-(5-Fluoro-1,3-benzoxazol-2-yl)-2-methylpiperidin-1-yl][5-fluoro-2-(2H-1,2,3-triazol-2-yl)phenyl]methanone], the IC50 amounted to 0.111 µM in test [1] and 0.006 µM in test [2].

Consider `Cc1ccc(-c2ncccn2)c(C(=O)N2C[C@H](c3nc4c(F)cc(F)cc4o3)CC[C@H]2C)c1` [Example 61, [(2R,5R)-5-(4,6-Difluoro-1,3-benzoxazol-2-yl)-2-methylpiperidin-1-yl][5-methyl-2-(pyrimidin-2-yl)phenyl]methanone], for which the IC50 is 0.0813 µM in test [1] and 0.0442 µM in test [2].

With `Cc1ccc(-n2nccn2)c(C(=O)N2C[C@H](c3nc4cc(C(F)(F)F)ccc4o3)CC[C@H]2C)c1` [Example 36, [5-Methyl-2-(2H-1,2,3-triazol-2-yl)phenyl][(2R,5R)-2-methyl-5-[5-(trifluoromethyl)-1,3-benzoxazol-2-yl]piperidin-1-yl]methanone], the concentration for half-maximal inhibition (IC50) in test [1] was 0.0089 µM; in test [2], 0.0025 µM.

`Cc1ccc(-n2nccn2)c(C(=O)N2C[C@H](c3nc4cc(C(F)(F)F)ccc4o3)CC[C@H]2C)n1` [Example 40, [6-Methyl-3-(2H-1,2,3-triazol-2-yl)pyridin-2-yl]{(2R,5R)-2-methyl-5-[5-(trifluoromethyl)-1,3-benzoxazol-2-yl]piperidin-1-yl}methanone]: the IC50 in test [1] was 0.157 µM; in test [2], 0.1 µM.

Consider `C[C@@H]1CC[C@@H](c2nc3cc(Cl)ccc3o2)CN1C(=O)c1c(F)cccc1-n1nccn1` [Example 16, [(2R5R)-5-(5-Chloro-1,3-benzoxazol-2-yl)-2-methylpiperidin-1-yl][2-fluoro-6-(2H-1,2,3-triazol-2-yl)phenyl]methanone], for which the IC50 in test [1] stood at 0.0256 µM; in test [2], 0.0036 µM.

Take `C[C@@H]1CC[C@@H](c2nc3cc(C(F)(F)F)ccc3o2)CN1C(=O)c1cc(F)ccc1-c1ncccn1` [Example 38, [5-Fluoro-2-(pyrimidin-2-yl)phenyl]{(2R,5R)-2-methyl-5-[5-(trifluoromethyl)-1,3-benzoxazol-2-yl]piperidin-1-yl}methanone]: the IC50 in test [1] was 0.814 µM; in test [2], 0.0786 µM.

Take `C[C@@H]1CC[C@@H](c2nc3cc(F)ccc3o2)CN1C(=O)c1cc(F)ccc1-c1ncccn1` [Example 32, [(2R,5R)-5-(5-Fluoro-1,3-benzoxazol-2-yl)-2-methylpiperidin-1-yl][5-fluoro-2-(pyrimidin-2-yl)phenyl]methanone]: the results for the IC50 in test [1] and in test [2] were 0.0249 µM and 0.0082 µM, respectively.

Turning to `C[C@@H]1CC[C@@H](c2nc3cc(F)ccc3o2)CN1C(=O)c1ccccc1-n1nccn1` [Example 28, [(2R,5R)-5-(5-Fluoro-1,3-benzoxazol-2-yl)-2-methylpiperidin-1-yl][2-(2H-1,2,3-triazol-2-yl)phenyl]methanone], the figures for the half-inhibitory concentration (IC50) in test [1] and in test [2] were 0.0504 µM and 0.0015 µM, respectively.

`C[C@@H]1CC[C@@H](c2nc3cc(F)c(F)cc3o2)CN1C(=O)c1cc(F)ccc1-c1ncccn1` [Example 52, [(2R,5R)-5-(5,6-Difluoro-1,3-benzoxazol-2-yl)-2-methylpiperidin-1-yl][5-fluoro-2-(pyrimidin-2-yl)phenyl]methanone]: the IC50 is 0.0829 µM in test [1] and 0.011 µM in test [2].

`C[C@@H]1CC[C@@H](c2nc3ccc(Cl)cc3o2)CN1C(=O)c1ccc(F)cc1-n1nccn1` [Example 47, [(2R,5R)-5-(6-Chloro-1,3-benzoxazol-2-yl)-2-methylpiperidin-1-yl][4-fluoro-2-(2H-1,2,3-triazol-2-yl)phenyl]methanone]: the IC50 was found to be 0.0586 µM in test [1] and 0.0166 µM in test [2].

In the case of `Cc1ccc(-n2nccn2)c(C(=O)N2C[C@H](c3nc4ccc(F)c(F)c4o3)CC[C@H]2C)c1` [Example 58, [(2R,5R)-5-(6,7-Difluoro-1,3-benzoxazol-2-yl)-2-methylpiperidin-1-yl][5-methyl-2-(2H-1,2,3-triazol-2-yl)phenyl]methanone], the IC50 worked out at 0.0093 µM in test [1] and 0.0094 µM in test [2].

As for `Cc1ccc(-c2ncccn2)c(C(=O)N2C[C@H](c3nc4cc(Cl)ccc4o3)CC[C@H]2C)c1` (single isomer, unassigned) [Example 5, [(2R*,5R*)-5-(5-Chloro-1,3-benzoxazol-2-yl)-2-methylpiperidin-1-yl][5-methyl-2-(pyrimidin-2-yl)phenyl]methanone], the concentration for half-maximal inhibition (IC50) came out at 0.0031 µM in test [1] and 0.0043 µM in test [2].

The values are drawn from patent US20140228377A1, “METHYLPIPERIDINE DERIVATIVE” (TAISHO PHARMACEUTICAL CO., LTD., priority 2011, published 2014).
